Data as given in EP4389749A1, “SUBSTITUTED 3,7-DIHYDRO-1H-PURINE-2,6-DIONES AND USE THEREOF” (invIOs GmbH, priority 2022, dated 2024).

What was measured:
CD4+ T-cells = assay: Immunostimulation assay with anti-CD3/28 stimulated T-cells, CD69 expression by flow cytometry; format: cell-based, human; settings: T-cell; purified human CD4+ and CD8+ T-cells, 1 µg/ml anti-CD3, 1 µg/ml anti-CD28, 16 hours, surface FACS; read-out: EC50 CD4+
Method: (§1) Selection of potent compounds based on structure activity relation (SAR) using human, anti-CD3/28 stimulated T-cells. Enhanced activation of stimulated T-cells is measured by CD69 expression by flowcytometry.
(§2) White blood cell enriched buffy coats were ordered from the Austrian red cross, diluted with PBS to a total volume of 480 ml, 30 ml transferred to 50ml falcons and 11 ml lymphoprep added. Cell suspensions were centrifuged for 20 min at 2200 rpm and the PBMC containing layer transferred, three times washed with PBS and counted.
(§3) 10^7 PBMCs were magnetically labeled with CD4 and CD8 microbeads according to manufacturer's instructions and separated using autoMACS device. For dose response experiments with purified CD4+CD8+ T-cells 80000 cells were seeded per 96-well flat bottom cell culture dish.
(§4) 10 mM compounds of the invention stocks were further diluted using DMSO and equal amounts transferred to T-cell containing 96-wells. Final concentrations tested were: 30 µM, 10 µM, 3 µM, 1 µM, 0.3 µM, 0.1 µM, 0.03 µM, 0.01 µM, 0.003 µM and 0.001 µM.
(§5) For the stimulation assays 80.000 purified CD4+ and CD8+ T-cells were seeded per 96-well and incubated with 1 µg/ml anti-CD3, 1 µg/ml anti-CD28 and compounds of the invention ranging from 0.001 µM to 30 µM. DMSO only wells served as control to determine minimal T-cell activation upon stimulation and CD3/28 coupled Dynabeads were used to determine the maximal activation of T-cells. Cells were cultured for 16 hours in a humidified incubator at 37 °C and 5 % CO2.
(§6) T-cells were stained for surface antigens (anti-CD4 and anti-CD8) and cell activation markers (anti-CD25 and anti-CD69). Additionally, a fixable viability dye was used to stain viable cells. Staining was performed for 15 minutes and cells analyzed using a Fortessa flow cytometer and FlowJo Software. EC50s were calculated using GraphPad Prism® and a variable slope model (agonist vs. response - variable slope).

CD8+ T-cells = assay: as above; format: cell-based, human; settings: T-cell; purified human CD4+ and CD8+ T-cells, 1 µg/ml anti-CD3, 1 µg/ml anti-CD28, 16 hours, surface FACS; read-out: EC50 CD8+
Method: as §1, §2, §3, §4, §5, §6

EC50 (CD4+ T-cells)	EC50 (CD8+ T-cells)	Compound
1000 to 5000 nM	1000 to 5000 nM	CC(O)Cn1c(=O)[nH]c(=O)c2c1nc(-c1ccc(Oc3ccccc3)c(Cl)c1)n2C (stereo not shown) [Compound 141, 8-(3-chloro-4-phenoxyphenyl)-3-(2-hydroxypropyl)-7-methyl-3,7-dihydro-1H-purine-2,6-dione]
100 to 500 nM	100 to 500 nM	CC(CO)Cn1c(=O)[nH]c(=O)c2c1nc(-c1ccc(Oc3ccc(OC(F)(F)F)cc3)c(F)c1)n2C (stereo not shown) [Compound 152, 8-(3-fluoro-4-(4-(trifluoromethoxy)phenoxy)phenyl)-3-(3-hydroxy-2-methylpropyl)-7-methyl-3,7-dihydro-1H-purine-2,6-dione]
100 to 500 nM	100 to 500 nM	Cn1c(-c2ccc(Oc3ccc(OC(F)(F)F)cc3)c(F)c2)nc2c1c(=O)[nH]c(=O)n2CC(O)C(F)(F)F (stereo not shown) [Compound 167, 8-(3-fluoro-4-(4-(trifluoromethoxy)phenoxy)phenyl)-7-methyl-3-(3,3,3-trifluoro-2-hydroxypropyl)-3,7-dihydro-1H-purine-2,6-dione]
> 5000 nM	> 5000 nM	CC(O)Cn1c(=O)[nH]c(=O)c2c1nc(-c1ccc(Oc3ccccc3OC(F)(F)F)cc1)n2C (stereo not shown) [Compound 190, 3-(2-hydroxypropyl)-7-methyl-8-(4-(2-(trifluoromethoxy)phenoxy)phenyl)-3,7-dihydro-1H-purine-2,6-dione]
100 to 500 nM	100 to 500 nM	Cn1c(-c2ccc(Oc3ccc(Cl)cc3)cc2)nc2c1c(=O)[nH]c(=O)n2CC(O)C(F)(F)F (stereo not shown) [Compound 164, 8-(4-(4-chlorophenoxy)phenyl)-7-methyl-3-(3,3,3-trifluoro-2-hydroxypropyl)-3,7-dihydro-1H-purine-2,6-dione]
1000 to 5000 nM	1000 to 5000 nM	COc1cc(-c2nc3c(c(=O)[nH]c(=O)n3CC(C)O)n2C)ccc1Oc1ccc(OC(F)(F)F)cc1 (stereo not shown) [Compound 196, 3-(2-hydroxypropyl)-8-(3-methoxy-4-(4-(trifluoromethoxy)phenoxy)phenyl)-7-methyl-3,7-dihydro-1H-purine-2,6-dione]
100 to 500 nM	100 to 500 nM	Cn1c(-c2ccc(Oc3ccc(OC(F)(F)F)cc3)c(F)c2)nc2c1c(=O)[nH]c(=O)n2CC(O)CF (stereo not shown) [Compound 149, 3-(3-fluoro-2-hydroxypropyl)-8-(3-fluoro-4-(4-(trifluoromethoxy)phenoxy)phenyl)-7-methyl-3,7-dihydro-1H-purine-2,6-dione]
100 to 500 nM	100 to 500 nM	CC(O)Cn1c(=O)[nH]c(=O)c2c1nc(-c1ccc(Oc3ccc(OC(F)(F)F)cc3)c(OC(F)(F)F)c1)n2C (stereo not shown) [Compound 156, 3-(2-hydroxypropyl)-7-methyl-8-(3-(trifluoromethoxy)-4-(4-(trifluoromethoxy)phenoxy)phenyl)-3,7-dihydro-1H-purine-2,6-dione]
500 to 1000 nM	500 to 1000 nM	CC(O)Cn1c(=O)[nH]c(=O)c2c1nc(-c1ccc(Oc3ccc(OC(F)F)cc3)c(Cl)c1)n2C (stereo not shown) [Compound 178, 8-(3-chloro-4-(4-(difluoromethoxy)phenoxy)phenyl)-3-(2-hydroxypropyl)-7-methyl-3,7-dihydro-1H-purine-2,6-dione]

Second part, the molecule before the results:

Compound	EC50 (CD4+ T-cells)	EC50 (CD8+ T-cells)
CC(O)Cn1c(=O)[nH]c(=O)c2c1nc(-c1ccc(Oc3ccc(Cl)cc3)c(OC(F)F)c1)n2C (stereo not shown) [Compound 81, 8-(4-(4-chlorophenoxy)-3-(difluoromethoxy)phenyl)-3-(2-hydroxypropyl)-7-methyl-3,7-dihydro-1H-purine-2,6-dione]	100 to 500 nM	< 100 nM
COc1ccc(COc2ccc(-c3nc4c(c(=O)[nH]c(=O)n4CC(C)O)n3C)cc2F)cc1 (stereo not shown) [Compound 114, 8-(3-fluoro-4-((4-methoxybenzyl)oxy)phenyl)-3-(2-hydroxypropyl)-7-methyl-3,7-dihydro-1H-purine-2,6-dione]	1000 to 5000 nM	1000 to 5000 nM
COc1ccc(COc2ccc(-c3nc4c(c(=O)[nH]c(=O)n4CC(C)O)n3C)cc2OC)cc1F (stereo not shown) [Compound 126, 8-(4-((3-fluoro-4-methoxybenzyl)oxy)-3-methoxyphenyl)-3-(2-hydroxypropyl)-7-methyl-3,7-dihydro-1H-purine-2,6-dione]	500 to 1000 nM	100 to 500 nM
Cc1ccc(COc2ccc(-c3nc4c(c(=O)[nH]c(=O)n4CC(CO)C(F)F)n3C)cc2F)cc1 (stereo not shown) [Compound 67, 3-(3,3-difluoro-2-(hydroxymethyl)propyl)-8-(3-fluoro-4-((4-methylbenzyl)oxy)phenyl)-7-methyl-3,7-dihydro-1H-purine-2,6-dione]	< 100 nM	100 to 500 nM
COc1cc(-c2nc3c(c(=O)[nH]c(=O)n3CC(O)C(F)F)n2C)ccc1OCc1ccc(OC(F)F)cc1 (stereo not shown) [Compound 83, 3-(3,3-difluoro-2-hydroxypropyl)-8-(4-((4-(difluoromethoxy)benzyl)oxy)-3-methoxyphenyl)-7-methyl-3,7-dihydro-1H-purine-2,6-dione]	< 100 nM	< 100 nM
CC(O)Cn1c(=O)[nH]c(=O)c2c1nc(-c1ccc(Oc3ccc(C(F)(F)F)cc3)cc1)n2C (stereo not shown) [Compound 136, 3-(2-hydroxypropyl)-7-methyl-8-(4-(4-(trifluoromethyl)phenoxy)phenyl)-3,7-dihydro-1H-purine-2,6-dione]	1000 to 5000 nM	1000 to 5000 nM
Cc1ccc(COc2ccc(-c3nc4c(c(=O)[nH]c(=O)n4CC(O)C(F)F)n3C)cc2F)cc1 (stereo not shown) [Compound 80, 3-(3,3-difluoro-2-hydroxypropyl)-8-(3-fluoro-4-((4-methylbenzyl)oxy)phenyl)-7-methyl-3,7-dihydro-1H-purine-2,6-dione]	< 100 nM	< 100 nM
CC(O)Cn1c(=O)[nH]c(=O)c2c1nc(-c1ccc(OCc3ccc(F)cc3)c(Cl)c1)n2C (stereo not shown) [Compound 91, 8-(3-chloro-4-((4-fluorobenzyl)oxy)phenyl)-3-(2-hydroxypropyl)-7-methyl-3,7-dihydro-1H-purine-2,6-dione]	100 to 500 nM	100 to 500 nM
Cc1ccc(COc2ccc(-c3nc4c(c(=O)[nH]c(=O)n4CC(C)O)n3C)cc2OC(F)(F)F)cc1 (stereo not shown) [Compound 122, 3-(2-hydroxypropyl)-7-methyl-8-(4-((4-methylbenzyl)oxy)-3-(trifluoromethoxy)phenyl)-3,7-dihydro-1H-purine-2,6-dione]	< 100 nM	< 100 nM
CC(O)Cn1c(=O)[nH]c(=O)c2c1nc(-c1ccc(OCc3ccccc3)cc1)n2C (stereo not shown) [Compound 78, 8-(4-(benzyloxy)phenyl)-3-(2-hydroxypropyl)-7-methyl-3,7-dihydro-1H-purine-2,6-dione]	500 to 1000 nM	100 to 500 nM
CC(CO)Cn1c(=O)[nH]c(=O)c2c1nc(-c1ccc(OCc3ccccc3)c(OC(F)(F)F)c1)n2C (stereo not shown) [Compound 118, 8-(4-(benzyloxy)-3-(trifluoromethoxy)phenyl)-3-(3-hydroxy-2-methylpropyl)-7-methyl-3,7-dihydro-1H-purine-2,6-dione]	< 100 nM	100 to 500 nM
COc1cc(-c2nc3c(c(=O)[nH]c(=O)n3CC(C)O)n2C)ccc1OCc1cccc2ncccc12 (stereo not shown) [Compound 113, 3-(2-hydroxypropyl)-8-(3-methoxy-4-(quinolin-5-ylmethoxy)phenyl)-7-methyl-3,7-dihydro-1H-purine-2,6-dione]	500 to 1000 nM	1000 to 5000 nM
COc1cc(-c2nc3c(c(=O)[nH]c(=O)n3CC(O)CF)n2C)ccc1OCc1ccccc1 (stereo not shown) [Compound 58, 8-(4-(benzyloxy)-3-methoxyphenyl)-3-(3-fluoro-2-hydroxypropyl)-7-methyl-3,7-dihydro-1H-purine-2,6-dione]	500 to 1000 nM	100 to 500 nM
Cc1ccc(COc2ccc(-c3nc4c(c(=O)[nH]c(=O)n4CC(C)O)n3C)cc2C(F)(F)F)cc1 (stereo not shown) [Compound 123, 3-(2-hydroxypropyl)-7-methyl-8-(4-((4-methylbenzyl)oxy)-3-(trifluoromethyl)phenyl)-3,7-dihydro-1H-purine-2,6-dione]	< 100 nM	< 100 nM
COc1cc(-c2nc3c(c(=O)[nH]c(=O)n3CC(C)O)n2C)ccc1OCc1ccccc1 (stereo not shown) [Compound 16, 8-(4-(benzyloxy)-3-methoxyphenyl)-3-(2-hydroxypropyl)-7-methyl-3,7-dihydro-1H-purine-2,6-dione]	500 to 1000 nM	1000 to 5000 nM
CC(CO)Cn1c(=O)[nH]c(=O)c2c1nc(-c1ccc(Oc3ccc(OC(F)(F)F)cc3)cc1)n2C (stereo not shown) [Compound 100, 3-(3-hydroxy-2-methylpropyl)-7-methyl-8-(4-(4-(trifluoromethoxy)phenoxy)phenyl)-3,7-dihydro-1H-purine-2,6-dione]	100 to 500 nM	100 to 500 nM
COc1cc(-c2nc3c(c(=O)[nH]c(=O)n3CC(C)O)n2C)ccc1OCc1ccc(C#N)cc1 (stereo not shown) [Compound 90, 4-((4-(3-(2-hydroxypropyl)-7-methyl-2,6-dioxo-2,3,6,7-tetrahydro-1H-purin-8-yl)-2-methoxyphenoxy)methyl)benzonitrile]	100 to 500 nM	500 to 1000 nM
